Measurements reported in PMC6832920, “Synthesis, Docking Studies, and In Vitro Evaluation of Some Novel Thienopyridines and Fused Thienopyridine–Quinolines as Antibacterial Agents and DNA Gyrase Inhibitors” (Molecules, 2019).
In brackets after ≈: the same amount, converted by molar mass.

Tests used:
[1] = system: Salmonella typhimurium 14028; experiment: MIC determination by dilution procedure; assay type: cell-based; conditions: Salmonella enterica; S. typhimurium 14028; dilutions 125-1.95 μg/mL; read-out: minimum inhibitory concentration (MIC)
Experimental: (§1) The clinical control strains of Gram-negative bacteria (Escherichia coli 8739, Salmonella typhimurium 14028, Pseudomonas aeruginosa 27853) and Gram-positive bacteria (Bacillus subtilis 6633, Bacillus cereus 33018, Staphylococcus aureus 25923), were obtained from microbial inoculums by subculturing microorganisms into nutrient broth (NB) at 37 °C for 18 h, and were adjusted to 0.125 A° at 625 nm (equivalent to a McFarland 0.5) in 2-fold NB. A 100 μL measure of NB containing each test microorganism was added to the sterile Petri dishes. Antibacterial testing was carried out on all compounds (3a,b–14) using the agar disc-diffusion method [40]. Sterile nutrients were inoculated with 100 μL cell suspension of the chosen test microorganism and poured into Petri dishes (20 cm diameter). Filter paper discs (Whatman, No.3, diameter 5 mm) were loaded with 10 μL containing 100 μg of the tested compounds, as well as the standard drug. Composite compound disks were placed on the surface of inoculated agar plates and kept at low temperatures before incubation in order to support the swelling and diffusion of the microbial growth. The plates were incubated at 37 °C in the incubator. Experiments were performed in duplicate and the diameters of inhibition zones were measured after 24 h.

[2] = system: Staphylococcus aureus 25923; experiment: MIC determination by dilution procedure; assay type: cell-based; conditions: Staphylococcus aureus, 25923, S. aureus 25923; dilutions 125-1.95 μg/mL; read-out: minimum inhibitory concentration (MIC)
Experimental: (§2) A 100 μL measure of NB containing each test microorganism was added to the sterile Petri dishes. Antibacterial testing was carried out on all compounds (3a,b–14) using the agar disc-diffusion method [40]. Sterile nutrients were inoculated with 100 μL cell suspension of the chosen test microorganism and poured into Petri dishes (20 cm diameter). Filter paper discs (Whatman, No.3, diameter 5 mm) were loaded with 10 μL containing 100 μg of the tested compounds, as well as the standard drug. Composite compound disks were placed on the surface of inoculated agar plates and kept at low temperatures before incubation in order to support the swelling and diffusion of the microbial growth. The plates were incubated at 37 °C in the incubator. Experiments were performed in duplicate and the diameters of inhibition zones were measured after 24 h. A diameter of inhibition zone (DIZ) assay was performed to evaluate the antimicrobial potential of the compounds against the tested organisms compared with reference antibiotics.

Bacillus cereus 33018 [3] = experiment: agar disc-diffusion antibacterial assay; assay type: cell-based; conditions: B. cereus 33018, disc loaded with 100 μg, 37 °C, 24 h, read-out: diameter of inhibition zone
Experimental: as §2

Escherichia coli 8739 [4] = experiment: MIC determination by dilution procedure; assay type: cell-based; conditions: E. coli 8739, dilutions 125-1.95 μg/mL, read-out: minimum inhibitory concentration (MIC)
[5] = system: methicillin-resistant Staphylococcus aureus (MRSA); experiment: inhibition zones against MRSA (disc diffusion); assay type: cell-based
Bacillus subtilis 6633 [6] = experiment: agar disc-diffusion antibacterial assay; assay type: cell-based; conditions: B. subtilis 6633, disc loaded with 100 μg, 37 °C, 24 h, read-out: diameter of inhibition zone
Experimental: as §2

[7] = system: Pseudomonas aeruginosa 27853; experiment: agar disc-diffusion antibacterial assay; assay type: cell-based; conditions: P. aeruginosa 27853, disc loaded with 100 μg, 37 °C, 24 h, read-out: diameter of inhibition zone
Experimental: (§3) The clinical control strains of Gram-negative bacteria (Escherichia coli 8739, Salmonella typhimurium 14028, Pseudomonas aeruginosa 27853) and Gram-positive bacteria (Bacillus subtilis 6633, Bacillus cereus 33018, Staphylococcus aureus 25923), were obtained from microbial inoculums by subculturing microorganisms into nutrient broth (NB) at 37 °C for 18 h, and were adjusted to 0.125 A° at 625 nm (equivalent to a McFarland 0.5) in 2-fold NB. A 100 μL measure of NB containing each test microorganism was added to the sterile Petri dishes. Antibacterial testing was carried out on all compounds (3a,b–14) using the agar disc-diffusion method [40]. Sterile nutrients were inoculated with 100 μL cell suspension of the chosen test microorganism and poured into Petri dishes (20 cm diameter). Filter paper discs (Whatman, No.3, diameter 5 mm) were loaded with 10 μL containing 100 μg of the tested compounds, as well as the standard drug. Composite compound disks were placed on the surface of inoculated agar plates and kept at low temperatures before incubation in order to support the swelling and diffusion of the microbial growth. The plates were incubated at 37 °C in the incubator. Experiments were performed in duplicate and the diameters of inhibition zones were measured after 24 h. A diameter of inhibition zone (DIZ) assay was performed to evaluate the antimicrobial potential of the compounds against the tested organisms compared with reference antibiotics.

[8] = system: Pseudomonas aeruginosa 27853; experiment: MIC determination by dilution procedure; assay type: cell-based; conditions: Pseudomonas aeruginosa, 27853, P. aeruginosa 27853; dilutions 125-1.95 μg/mL; read-out: minimum inhibitory concentration (MIC)
DNA gyrase from E. coli = target: T1, DNA gyrase from E. coli (Escherichia coli, UniProt P0AES6); experiment: Escherichia coli DNA gyrase supercoiling inhibition assay; assay type: biochemical
T1 construct: purchased TopoGEN

Escherichia coli 8739 [9] = experiment: agar disc-diffusion antibacterial assay; assay type: cell-based; conditions: E. coli 8739, disc loaded with 100 μg, 37 °C, 24 h, read-out: diameter of inhibition zone
Experimental: as §3

[10] = system: Staphylococcus aureus 25923; experiment: agar disc-diffusion antibacterial assay; assay type: cell-based; conditions: S. aureus 25923, disc loaded with 100 μg, 37 °C, 24 h, read-out: diameter of inhibition zone
Experimental: as §3

Bacillus cereus 33018 [11] = experiment: MIC determination by dilution procedure; assay type: cell-based; conditions: B. cereus 33018, dilutions 125-1.95 μg/mL, read-out: minimum inhibitory concentration (MIC)
Experimental: as §2

[12] = system: Salmonella typhimurium 14028; experiment: agar disc-diffusion antibacterial assay; assay type: cell-based; conditions: Salmonella enterica; S. typhimurium 14028; disc loaded with 100 μg; 37 °C, 24 h; read-out: diameter of inhibition zone
Experimental: as §1

Bacillus subtilis 6633 [13] = experiment: MIC determination by dilution procedure; assay type: cell-based; conditions: B. subtilis 6633, dilutions 125-1.95 μg/mL, read-out: minimum inhibitory concentration (MIC)
Experimental: as §2

SMILES: COc1ccc(-c2cc(-c3ccco3)nc3sc4c(NC(=O)CNN)c5c(nc4c23)CCCC5)cc1 [Compound 7a, N-(2-(furan-2-yl)-4-(4-methoxyphenyl)-6,7,8,9-tetrahydropyrido[3′,2′:4,5]thieno[3,2-b]quinolin-10-yl)-2-hydrazinylacetamide]
- MIC [1]: 31.2 µg/mL (≈ 62.6 µM)
- MIC [2]: 15.6 µg/mL (≈ 31.3 µM)
- zone of inhibition at 100 µg/disc (Bacillus cereus 33018 [3]): 15 mm
- MIC (Escherichia coli 8739 [4]): 15.6 µg/mL (≈ 31.3 µM)
- zone of inhibition against MRSA [5]: 18 mm
- zone of inhibition at 100 µg/disc (Bacillus subtilis 6633 [6]): 17 mm
- zone of inhibition at 100 µg/disc [7]: 11 mm
- MIC [8]: 31.2 µg/mL (≈ 62.6 µM)
- IC50 (DNA gyrase from E. coli): 8.66 ± 0.61 µM
- zone of inhibition at 100 µg/disc (Escherichia coli 8739 [9]): 16 mm
- zone of inhibition at 100 µg/disc [10]: 19 mm
- MIC (Bacillus cereus 33018 [11]): 15.6 µg/mL (≈ 31.3 µM)
- zone of inhibition at 100 µg/disc [12]: 11 mm
- melting point: 278 °C
- MIC (Bacillus subtilis 6633 [13]): 15.6 µg/mL (≈ 31.3 µM)

SMILES: COc1ccc(-c2cc(-c3ccco3)nc3sc4c(NC(=O)CN5CCN(C)CC5)c5c(nc4c23)CCCC5)cc1 [Compound 9b, N-(2-(furan-2-yl)-4-(4-methoxyphenyl)-6,7,8,9-tetrahydropyrido[3′,2′:4,5]thieno[3,2-b]quinolin-10-yl)-2-(4-methylpiperazin-1-yl)acetamide]
- MIC [1]: 15.6 µg/mL (≈ 27.5 µM)
- MIC [2]: 15.6 µg/mL (≈ 27.5 µM)
- zone of inhibition at 100 µg/disc (Bacillus cereus 33018 [3]): 18 mm
- MIC (Escherichia coli 8739 [4]): 15.6 µg/mL (≈ 27.5 µM)
- zone of inhibition against MRSA [5]: 14 mm
- zone of inhibition at 100 µg/disc (Bacillus subtilis 6633 [6]): 15 mm
- zone of inhibition at 100 µg/disc [7]: 18 mm
- MIC [8]: 15.6 µg/mL (≈ 27.5 µM)
- IC50 (DNA gyrase from E. coli): 5.78 ± 0.46 µM
- zone of inhibition at 100 µg/disc (Escherichia coli 8739 [9]): 20 mm
- zone of inhibition at 100 µg/disc [10]: 16 mm
- MIC (Bacillus cereus 33018 [11]): 15.6 µg/mL (≈ 27.5 µM)
- zone of inhibition at 100 µg/disc [12]: 19 mm
- melting point: 158 to 159 °C
- MIC (Bacillus subtilis 6633 [13]): 15.6 µg/mL (≈ 27.5 µM)

SMILES: COc1ccc(-c2cc(-c3ccco3)nc3sc4c(N=Cc5cccs5)c5c(nc4c23)CCCC5)cc1 [Compound 12b, N-(2-(furan-2-yl)-4-(4-methoxyphenyl)-6,7,8,9-tetrahydropyrido[3′,2′:4,5]thieno[3,2-b]quinolin-10-yl)-1-(thiophen-2-yl)methanimine]
- MIC [1]: 15.6 µg/mL (≈ 30 µM)
- MIC [2]: 15.6 µg/mL (≈ 30 µM)
- zone of inhibition at 100 µg/disc (Bacillus cereus 33018 [3]): 15 mm
- MIC (Escherichia coli 8739 [4]): 15.6 µg/mL (≈ 30 µM)
- zone of inhibition against MRSA [5]: 15 mm
- zone of inhibition at 100 µg/disc (Bacillus subtilis 6633 [6]): 15 mm
- zone of inhibition at 100 µg/disc [7]: 16 mm
- MIC [8]: 15.6 µg/mL (≈ 30 µM)
- IC50 (DNA gyrase from E. coli): 4.6 ± 0.28 µM
- zone of inhibition at 100 µg/disc (Escherichia coli 8739 [9]): 18 mm
- zone of inhibition at 100 µg/disc [10]: 16 mm
- MIC (Bacillus cereus 33018 [11]): 15.6 µg/mL (≈ 30 µM)
- zone of inhibition at 100 µg/disc [12]: 16 mm
- melting point: 114 °C
- MIC (Bacillus subtilis 6633 [13]): 15.6 µg/mL (≈ 30 µM)
